One test has as its target T1, human GLP-1R (Homo sapiens, UniProt P43220).
T1 construct: expressed in transfected cells; crude membranes
Nature of the test: [125I]-GLP-1 binding, SPA with WGA beads, 0.1% bacitracin. The settings on record: geometric mean, read-out: hGLP1R Ki. The method in brief:
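Binding buffer was 25 mM HEPES pH 7.4 with 2.5 mM CaCl2, 1 mM MgCl2, 0.1% (w/v) bacitracin, 0.003% Tween-20 and EDTA-free protease inhibitors. Four-parameter regression gave IC50, converted to Ki (geometric mean, SEM, n independent days).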

In a further test the target is T2, human GIPR (Homo sapiens, UniProt P48546).
T2 construct: expressed in transfected cells; crude membranes
T2 sequence (P48546 22-466): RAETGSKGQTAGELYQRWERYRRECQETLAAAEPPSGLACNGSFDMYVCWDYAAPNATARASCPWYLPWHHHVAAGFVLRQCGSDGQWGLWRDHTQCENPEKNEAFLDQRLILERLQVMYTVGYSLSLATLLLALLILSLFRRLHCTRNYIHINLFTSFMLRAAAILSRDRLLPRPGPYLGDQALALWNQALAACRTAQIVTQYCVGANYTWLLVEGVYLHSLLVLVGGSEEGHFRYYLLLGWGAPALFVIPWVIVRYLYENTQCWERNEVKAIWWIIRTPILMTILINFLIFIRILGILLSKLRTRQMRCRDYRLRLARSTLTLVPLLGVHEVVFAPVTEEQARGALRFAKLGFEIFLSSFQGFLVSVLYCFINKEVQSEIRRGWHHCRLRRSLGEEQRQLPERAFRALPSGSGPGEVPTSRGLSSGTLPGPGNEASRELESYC
Nature of the test: [125I]-GIP binding, SPA with WGA beads, 0.1% bacitracin. The conditions noted are these: geometric mean, read-out: hGIPR Ki. The method in brief: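 Ki values are geometric means (SEM, n independent days), derived from four-parameter nonlinear regression of IC50. Membranes came from hGIPR-expressing CHO cells.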

In the next test the target is T3, human GcgR (Homo sapiens, UniProt P47871).
T3 construct: expressed in transfected cells; crude membranes
Nature of the test: [125I]-Glucagon binding, SPA with WGA beads, 0.1% bacitracin. The settings on record: geometric mean, read-out: hGcgR Ki. An outline of the steps:
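SPA competition binding with WGA beads on crude membranes from HEK293 cells stably expressing hGcgR. Buffer: 25 mM HEPES pH 7.4, 2.5 mM CaCl2, 1 mM MgCl2, 0.1% bacitracin, 0.003% Tween-20; 10-point 3-fold dilutions, NSB with 1 μM Gcg.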

*1 amine or outer side, *2 acyl side, *3 side chain or, on linkers, in order; H or OH if unused. Where a SMILES comes first, the peptide text is derived from it. Side-chain parts run from the residue outwards. [ ]: non-standard residue; d: D form. The star is where a group is joined. C20 diacid = O=C(O)CCCCCCCCCCCCCCCCCCC(=O)*; C18 diacid = O=C(O)CCCCCCCCCCCCCCCCC(=O)*; γGlu = O=C(O)[C@H](CCC(=O)[*:2])N[*:1]; αMeF = C[C@](N)(Cc1ccccc1)C(=O)O; 4Pal = N[C@@H](Cc1ccncc1)C(=O)O; AEEA = NCCOCCOCC(=O)O; Aib = CC(C)(N)C(=O)O Some results are limits rather than exact numbers.

T1 sequence (P43220 24-463): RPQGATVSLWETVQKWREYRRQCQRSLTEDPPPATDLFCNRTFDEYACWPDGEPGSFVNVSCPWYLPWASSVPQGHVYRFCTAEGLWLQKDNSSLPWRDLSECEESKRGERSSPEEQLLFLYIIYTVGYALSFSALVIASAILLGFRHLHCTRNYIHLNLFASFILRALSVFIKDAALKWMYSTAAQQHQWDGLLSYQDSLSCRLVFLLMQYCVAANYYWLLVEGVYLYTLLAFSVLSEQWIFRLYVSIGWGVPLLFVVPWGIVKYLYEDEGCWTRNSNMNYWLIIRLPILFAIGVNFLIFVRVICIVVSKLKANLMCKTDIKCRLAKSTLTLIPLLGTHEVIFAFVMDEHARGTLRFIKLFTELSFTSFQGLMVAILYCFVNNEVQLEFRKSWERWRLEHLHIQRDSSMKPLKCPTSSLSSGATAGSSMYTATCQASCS
T3 sequence (P47871 26-477): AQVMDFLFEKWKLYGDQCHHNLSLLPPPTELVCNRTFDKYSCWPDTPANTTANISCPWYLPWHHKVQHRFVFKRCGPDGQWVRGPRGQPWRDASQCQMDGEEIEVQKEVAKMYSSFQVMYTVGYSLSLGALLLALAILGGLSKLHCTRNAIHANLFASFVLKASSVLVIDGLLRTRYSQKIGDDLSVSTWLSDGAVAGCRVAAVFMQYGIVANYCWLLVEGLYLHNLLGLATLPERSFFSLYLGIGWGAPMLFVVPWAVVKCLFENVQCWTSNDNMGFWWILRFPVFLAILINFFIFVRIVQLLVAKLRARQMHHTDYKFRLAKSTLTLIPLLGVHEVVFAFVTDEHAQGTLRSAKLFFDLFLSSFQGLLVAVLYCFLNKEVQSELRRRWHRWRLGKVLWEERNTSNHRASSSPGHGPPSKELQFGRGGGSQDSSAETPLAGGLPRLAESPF

A word on the Ki: it is the equilibrium dissociation constant of an inhibitor or competing ligand from its target. As to `CC[C@H](C)[C@H](NC(=O)[C@H](CO)NC(=O)[C@H](Cc1ccc(O)cc1)NC(=O)[C@H](CC(=O)O)NC(=O)[C@H](CO)NC(=O)[C@@H](NC(=O)[C@H](Cc1ccccc1)NC(=O)[C@@H](NC(=O)CNC(=O)[C@H](CCC(=O)O)NC(=O)[C@@H](C)NC(=O)[C@@H](N)Cc1ccc(O)cc1)[C@@H](C)O)[C@@H](C)CC)C(=O)N[C@@H](CC(C)C)C(=O)N[C@@H](CC(C)C)C(=O)N[C@@H](CC(=O)O)C(=O)N[C@@H](CCCCN)C(=O)N[C@@H](CCCCNC(=O)COCCOCCNC(=O)COCCOCCNC(=O)CC[C@H](NC(=O)CCCCCCCCCCCCCCCCC(=O)O)C(=O)O)C(=O)N[C@@H](C)C(=O)N[C@@H](CCC(N)=O)C(=O)NC(C)(C)C(=O)N[C@@H](CCC(=O)O)C(=O)N[C@@H](Cc1ccccc1)C(=O)N[C@H](C(=O)N[C@@H](CC(N)=O)C(=O)N[C@@H](Cc1c[nH]c2ccccc12)C(=O)N[C@@H](CC(C)C)C(=O)N[C@@H](CC(C)C)C(=O)N[C@@H](C)C(=O)N[C@@H](CCC(N)=O)C(=O)NCC(=O)N1CCC[C@H]1C(=O)N[C@@H](CO)C(=O)N[C@@H](CO)C(=O)NCC(=O)N[C@@H](C)C(=O)N1CCC[C@H]1C(=O)N1CCC[C@H]1C(=O)N1CCC[C@H]1C(=O)N[C@@H](CO)C(N)=O)C(C)C` [Example 20] (H-Y[dA]EGTFISDYSILLDKK([AEEA-AEEA-γGlu-C18 diacid])AQ[Aib]EFVNWLLAQGPSSGAPPPS-NH2), the values for the inhibitory constant (Ki) on human GLP-1R, at human GIPR and on human GcgR were 79.8 nM, 0.0477 nM and 216 nM, respectively.
`CC[C@H](C)[C@H](NC(=O)[C@H](CO)NC(=O)[C@H](Cc1ccc(O)cc1)NC(=O)[C@H](CC(=O)O)NC(=O)[C@H](CO)NC(=O)[C@@H](NC(=O)[C@H](Cc1ccccc1)NC(=O)[C@@H](NC(=O)CNC(=O)[C@H](CCC(=O)O)NC(=O)C(C)(C)NC(=O)[C@@H](N)Cc1ccc(O)cc1)[C@@H](C)O)[C@@H](C)CC)C(=O)N[C@@H](C)C(=O)N[C@@H](CC(C)C)C(=O)N[C@@H](CC(=O)O)C(=O)N[C@@H](CCCCN)C(=O)N[C@@H](CCCCNC(=O)COCCOCCNC(=O)COCCOCCNC(=O)CC[C@H](NC(=O)CCCCCCCCCCCCCCCCC(=O)O)C(=O)O)C(=O)N[C@@H](Cc1c[nH]cn1)C(=O)N[C@@H](CCC(N)=O)C(=O)NC(C)(C)C(=O)N[C@@H](CC(=O)O)C(=O)N[C@@H](Cc1ccccc1)C(=O)N[C@H](C(=O)N[C@@H](CCC(=O)O)C(=O)N[C@@H](Cc1ccncc1)C(=O)N[C@@H](CC(C)C)C(=O)N[C@@H](CC(C)C)C(=O)N[C@@H](C)C(=O)NCC(=O)NCC(=O)N1CCC[C@H]1C(=O)N[C@@H](CO)C(=O)N[C@@H](CO)C(=O)NCC(=O)N[C@@H](C)C(=O)N1CCC[C@H]1C(=O)N1CCC[C@H]1C(=O)N1CCC[C@H]1C(=O)N[C@@H](CO)C(N)=O)C(C)C` [Example 21] (H-Y[Aib]EGTFISDYSIALDKK([AEEA-AEEA-γGlu-C18 diacid])HQ[Aib]DFVE[4Pal]LLAGGPSSGAPPPS-NH2): the Ki at human GLP-1R is 801 nM; at human GIPR, 1.46 nM; on human GcgR it was above 1530 nM.
Regarding `CC[C@H](C)[C@H](NC(=O)[C@H](CO)NC(=O)[C@H](Cc1ccc(O)cc1)NC(=O)[C@H](CC(=O)O)NC(=O)[C@H](CO)NC(=O)[C@@H](NC(=O)[C@H](Cc1ccccc1)NC(=O)[C@@H](NC(=O)CNC(=O)[C@H](CCC(=O)O)NC(=O)C(C)(C)NC(=O)[C@@H](N)Cc1ccc(O)cc1)[C@@H](C)O)[C@@H](C)CC)C(=O)N[C@@H](CC(C)C)C(=O)N[C@@H](CC(C)C)C(=O)N[C@@H](CC(=O)O)C(=O)N[C@@H](CCCCN)C(=O)N[C@@H](CCCCNC(=O)COCCOCCNC(=O)COCCOCCNC(=O)CC[C@H](NC(=O)CCCCCCCCCCCCCCCCC(=O)O)C(=O)O)C(=O)N[C@@H](Cc1c[nH]cn1)C(=O)N[C@@H](CCC(N)=O)C(=O)NC(C)(C)C(=O)N[C@@H](CC(=O)O)C(=O)N[C@@H](Cc1ccccc1)C(=O)N[C@H](C(=O)N[C@@H](CCC(=O)O)C(=O)N[C@@H](Cc1ccncc1)C(=O)N[C@@H](CC(C)C)C(=O)N[C@@H](CC(C)C)C(=O)N[C@@H](C)C(=O)NCC(=O)NCC(=O)N1CCC[C@H]1C(=O)N[C@@H](CO)C(=O)N[C@@H](CO)C(=O)NCC(=O)N[C@@H](C)C(=O)N1CCC[C@H]1C(=O)N1CCC[C@H]1C(=O)N1CCC[C@H]1C(=O)N[C@@H](CO)C(N)=O)C(C)C` [Example 22], the Ki was 388 nM on human GLP-1R, 0.219 nM on human GIPR and above 1380 nM on human GcgR.
On to `CC[C@H](C)[C@H](NC(=O)[C@H](CO)NC(=O)[C@H](Cc1ccc(O)cc1)NC(=O)[C@H](CC(=O)O)NC(=O)[C@H](CO)NC(=O)[C@@H](NC(=O)[C@](C)(Cc1ccccc1)NC(=O)[C@@H](NC(=O)CNC(=O)[C@H](CCC(=O)O)NC(=O)C(C)(C)NC(=O)[C@@H](N)Cc1ccc(O)cc1)[C@@H](C)O)[C@@H](C)CC)C(=O)N[C@@H](C)C(=O)N[C@@H](CC(C)C)C(=O)N[C@@H](CC(=O)O)C(=O)N[C@@H](CCCCN)C(=O)N[C@@H](CCCCNC(=O)COCCOCCNC(=O)COCCOCCNC(=O)CC[C@H](NC(=O)CCCCCCCCCCCCCCCCC(=O)O)C(=O)O)C(=O)N[C@@H](Cc1c[nH]cn1)C(=O)N[C@@H](CCC(N)=O)C(=O)NC(C)(C)C(=O)N[C@@H](CC(=O)O)C(=O)N[C@@H](Cc1ccccc1)C(=O)N[C@H](C(=O)N[C@@H](CCC(=O)O)C(=O)N[C@@H](Cc1ccncc1)C(=O)N[C@@H](CC(C)C)C(=O)N[C@@H](CC(C)C)C(=O)N[C@@H](C)C(=O)NCC(=O)NCC(=O)N1CCC[C@H]1C(=O)N[C@@H](CO)C(=O)N[C@@H](CO)C(=O)NCC(=O)N[C@@H](C)C(=O)N1CCC[C@H]1C(=O)N1CCC[C@H]1C(=O)N1CCC[C@H]1C(=O)N[C@@H](CO)C(N)=O)C(C)C` [Example 23] (H-Y[Aib]EGT[αMeF]ISDYSIALDKK([AEEA-AEEA-γGlu-C18 diacid])HQ[Aib]DFVE[4Pal]LLAGGPSSGAPPPS-NH2), for which the results for the Ki on human GLP-1R, on human GIPR and on human GcgR were 251 nM, 0.0341 nM and 323 nM, respectively.
Consider `CC[C@H](C)[C@H](NC(=O)[C@H](Cc1ccccc1)NC(=O)[C@@H](NC(=O)CNC(=O)[C@H](CCC(=O)O)NC(=O)C(C)(C)NC(=O)[C@@H](N)Cc1ccc(O)cc1)[C@@H](C)O)C(=O)N[C@@H](CO)C(=O)N[C@@H](CC(=O)O)C(=O)N[C@@H](Cc1ccc(O)cc1)C(=O)N[C@@H](CO)C(=O)N[C@H](C(=O)NC(C)(C)C(=O)N[C@@H](CC(C)C)C(=O)N[C@@H](CC(=O)O)C(=O)N[C@@H](CCCCN)C(=O)N[C@@H](CCCCNC(=O)COCCOCCNC(=O)COCCOCCNC(=O)CC[C@H](NC(=O)CCCCCCCCCCCCCCCCC(=O)O)C(=O)O)C(=O)N[C@@H](Cc1c[nH]cn1)C(=O)N[C@@H](CCC(N)=O)C(=O)NC(C)(C)C(=O)N[C@@H](CC(=O)O)C(=O)N[C@@H](Cc1ccccc1)C(=O)N[C@H](C(=O)N[C@@H](CCC(=O)O)C(=O)N[C@@H](Cc1ccncc1)C(=O)N[C@@H](CC(C)C)C(=O)N[C@@H](CC(C)C)C(=O)N[C@@H](C)C(=O)NCC(=O)NCC(=O)N1CCC[C@H]1C(=O)N[C@@H](CO)C(=O)N[C@@H](CO)C(=O)NCC(=O)N[C@@H](C)C(=O)N1CCC[C@H]1C(=O)N1CCC[C@H]1C(=O)N1CCC[C@H]1C(=O)N[C@@H](CO)C(N)=O)C(C)C)[C@@H](C)CC` [Example 24], for which the values for the Ki at human GLP-1R, on human GIPR and at human GcgR were 729 nM, 0.254 nM and above 960 nM, respectively.
The corresponding values for `CC[C@H](C)[C@H](NC(=O)[C@H](CO)NC(=O)[C@H](Cc1ccc(O)cc1)NC(=O)[C@H](CC(=O)O)NC(=O)[C@H](CO)NC(=O)[C@@H](NC(=O)[C@](C)(Cc1ccccc1)NC(=O)[C@@H](NC(=O)CNC(=O)[C@H](CCC(=O)O)NC(=O)C(C)(C)NC(=O)[C@@H](N)Cc1ccc(O)cc1)[C@@H](C)O)[C@@H](C)CC)C(=O)N[C@@H](C)C(=O)N[C@@H](CC(C)C)C(=O)N[C@@H](CC(=O)O)C(=O)N[C@@H](CCCCN)C(=O)N[C@@H](CCCCNC(=O)COCCOCCNC(=O)COCCOCCNC(=O)CC[C@H](NC(=O)CCCCCCCCCCCCCCCCCCC(=O)O)C(=O)O)C(=O)N[C@@H](Cc1c[nH]cn1)C(=O)N[C@@H](CCC(N)=O)C(=O)NC(C)(C)C(=O)N[C@@H](CCC(=O)O)C(=O)N[C@@H](Cc1ccccc1)C(=O)N[C@H](C(=O)N[C@@H](CC(N)=O)C(=O)N[C@@H](Cc1c[nH]c2ccccc12)C(=O)N[C@@H](CC(C)C)C(=O)N[C@@H](CC(C)C)C(=O)N[C@@H](C)C(=O)NCC(=O)NCC(=O)N1CCC[C@H]1C(=O)N[C@@H](CO)C(=O)N[C@@H](CO)C(=O)NCC(=O)N[C@@H](C)C(=O)N1CCC[C@H]1C(=O)N1CCC[C@H]1C(=O)N1CCC[C@H]1C(=O)N[C@@H](CO)C(N)=O)C(C)C` [Example 25] (H-Y[Aib]EGT[αMeF]ISDYSIALDKK([AEEA-AEEA-γGlu-C20 diacid])HQ[Aib]EFVNWLLAGGPSSGAPPPS-NH2) are 15.8 nM, 0.0417 nM and 101 nM.

The record behind these values is patent publication US12723063B2, “GIPR-agonist compounds” (Eli Lilly and Company, priority 2019, dated 2026).
